Results as given in patent US20070155707A1 (Kadmus Pharmaceuticals, Inc., priority 2005, published 2007).
pIC50: −log10 of the molar value.

Assays:
FAAH = conditions: Kathuria 2003; Mor 2004; WO 2004/033422; cited from earlier work
[1] = molecular target: T1, fatty acid amide hydrolase (FAAH) (Homo sapiens, UniProt O00519); assay: FAAH LC-MS/MS screening assay, IC50 determination (anandamide hydrolysis by human liver microsomes); assay type: biochemical; conditions: inhibition of FAAH activity
T1 construct: 25 μL of human liver microsomes (31.3 μg); from tissue; host or cells: human liver microsomes
T1 sequence (O00519 1-579): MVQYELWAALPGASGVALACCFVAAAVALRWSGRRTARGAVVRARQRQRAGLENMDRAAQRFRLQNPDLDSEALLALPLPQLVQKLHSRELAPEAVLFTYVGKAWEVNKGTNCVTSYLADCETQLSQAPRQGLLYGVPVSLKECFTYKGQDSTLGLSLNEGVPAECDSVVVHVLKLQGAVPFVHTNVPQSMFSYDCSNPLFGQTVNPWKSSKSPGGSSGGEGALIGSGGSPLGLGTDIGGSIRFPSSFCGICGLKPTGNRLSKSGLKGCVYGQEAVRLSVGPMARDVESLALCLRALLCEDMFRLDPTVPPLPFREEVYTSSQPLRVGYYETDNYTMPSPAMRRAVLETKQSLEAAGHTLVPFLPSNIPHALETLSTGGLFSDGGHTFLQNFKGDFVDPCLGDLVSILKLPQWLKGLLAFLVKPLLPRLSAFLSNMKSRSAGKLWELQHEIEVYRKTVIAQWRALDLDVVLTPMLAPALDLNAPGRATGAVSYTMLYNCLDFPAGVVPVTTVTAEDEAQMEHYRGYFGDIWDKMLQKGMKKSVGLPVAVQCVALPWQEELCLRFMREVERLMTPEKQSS
Procedure: For determining IC50 values for candidate FAAH inhibitor compounds, the above method is used with an adjusted FAAH inhibitor concentration. In the IC50 assay, the FAAH inhibitor is added at a concentration range of approximately 3 μM to 0.03 nM. The final calculation of IC50 is determined by first transforming the concentrations by “X=log(X)” and then analyzing the data with a sigmoidal dose-response curve (no constraints) using GraphPad Prism version 4.00 for Windows (GraphPad Software, San Diego Calif. USA, www.graphpad.com).

[2] = Determination of pharmacokinetics in rats following oral administration (plasma and brain); assay type: in vivo, rat; conditions: for AUC / Cmax: rat, plasma; for AUC / Cmax / Brain AUC / Brain Cmax: 10 mg/kg oral gavage, solution
Procedure: Potential FAAH inhibitors are formulated for oral (p.o.), intraperitoneal (i.p.) or intravenous (i.v.) delivery to rats. Formulated compounds are administered and the animals were sacrificed at pre-determined time points post dose. At sacrifice, blood samples are collected into EDTA plasma tubes and whole brains were snap frozen in liquid nitrogen. EDTA plasma was isolated from blood samples after centrifugation. Brain and plasma samples are stored at −80° C. prior to analysis. All samples (brain and plasma) are analyzed for the concentrations of test compound (FAAH inhibitor), metabolites of the test compound and endogenous fatty acid ethanolamide levels (including anandamide, oleoylethanolamide, and palmitoylethanolamide) by LC-MS/MS. Levels of these compounds are compared across time points to determine pharmacokinetic properties of the test compounds and partial pharmacological effects of inhibiting FAAH activity (including changes of fatty acid ethanolamide levels).
The pharmacokinetic properties of compounds provided herein were assessed in rats following oral administration as a solution. […] The solution of the test compound was administered to rats at a dose of 10 mg/kg via oral gavage.

Structure (SMILES)	Inhibition of FAAH activity (in words) (FAAH)	pIC50 [1]	AUC [2] [ng·h/mL]	Cmax [2] [ng/mL]	Brain AUC [2]	Brain Cmax [2]	Crossing of the blood brain barrier ([2]; 10 mg/kg oral, conclusion from Table 2)
NC(=O)c1cccc(-c2cccc(OC(=O)NC3CCCCC3)c2)c1	potent and selective inhibitors of FAAH activity	–	–	–	–	–	–
O=C(NCC1CCCCC1)Oc1cccc(C(=O)O)c1 [Compound 2, 3-(Cyclohexylmethylcarbamoyloxy)benzoic acid]	–	> 7.00	1700	1250	–	–	–
O=C(NCC1CCCCC1)Oc1ccc(C(=O)O)cc1 [Compound 4, 4-(Cyclohexylmethylcarbamoyloxy)benzoic acid]	–	> 7.00	8840	7720	483 ng·h/g	475 ng/g	does not substantially cross the blood brain barrier
O=C(O)Cc1cccc(OC(=O)NCC2CCCCC2)c1 [Compound 7]	–	> 7.00	–	–	–	–	–
O=C(NCC1CCCCC1)Oc1cccc(-c2nnn[nH]2)c1 [Compound 11, 3-(1H-Tetrazol-5-yl)phenyl cyclohexylmethylcarbamate]	–	> 7.00	–	–	–	–	–
NC(=O)c1cccc(-c2cccc(OC(=O)NC3CCCCC3)c2)c1 [KDS-4103, reference compound]	–	–	6730	3160	9,737 ng * hr/g	4,584 ng/g	–
